Assay: HCV replicon assay (luciferase) in ET (Huh-lucubineo-ET) cell line
Assay type: cell-based
Details: Hepatitis C virus; tested at 10 μM; inhibition of replication relative to no compound control; ET replicon cells, luciferase 48-72 hours; read-out: % inhition at 10 μM
Description: A cell line, ET (Huh-lucubineo-ET) was used for screening of compounds, or pharmaceutically acceptable salts or solvates, described herein for inhibition of HCV RNA dependent RNA polymerase. The ET cell line was stably transfected with RNA transcripts harboring a I389luc-ubi-neo/NS3-3′/ET; replicon with firefly luciferase-ubiquitin-neomycin phosphotransferase fusion protein and EMCV-IRES driven NS3-5B polyprotein containing the cell culture adaptive mutations (E1202G; T1280I; K1846T) (Krieger at al, 2001 and unpublished). The ET cells were grown in DMEM, supplemented with 10% fetal calf serum, 2 mM Glutamine, Penicillin (100 IU/mL)/Streptomycin (100 μg/mL), 1× nonessential amino acids, and 250 μg/mL G418 (“Geneticin”). They were all available through Life Technologies (Bethesda, Md.). The cells were plated at 0.5−1.0×10^4 cells/well in the 96 well plates and incubated for 24 hrs before adding the test compounds. […] Luciferase activity was measured 48-72 hours later by adding a lysis buffer and the substrate (Catalog number Glo-lysis buffer E2661 and Bright-Glo luciferase system E2620 Promega, Madison, Wis.). Cells should not be too confluent during the assay. Percent inhibition of replication was plotted relative to no compound control. Under the same condition, cytotoxicity of the compounds was determined using cell proliferation reagent, WST-1 (Roche, Germany). The compounds showing antiviral activities, but no significant cytotoxicities were chosen to determine the EC50 and TC50, the effective concentration and toxic concentration at which 50% of the maximum inhibition is observed. For these determinations, 6 dilutions of each compound were used. Compounds were typically diluted 3 fold to span a concentration range of 250 fold. EC50 and similarly TC50 values were calculated by fitting % inhibition at each concentration to the following equation:
% inhibition=100%/[(EC50/[I])^b+1]
where b is Hill's coefficient.

| Compound | inhibition at 10 µM |
| --- | --- |
| Cc1cc(OC(F)(F)F)ccc1-c1cc(Cn2cc3nc(-c4cccc(F)c4F)nc-3cn2)on1 [Compound 177, 2-(2,3-Difluoro-phenyl)-5-[3-(2-methyl-4-trifluoromethoxy-phenyl)-isoxazol-5-ylmethyl]-5H-imidazo[4,5-d]pyridazine] | 99.6% |
| Fc1cccc(-c2nc3cnn(Cc4cc(-c5ccc(COc6cccnc6)cc5)no4)cc-3n2)c1F [Compound 178, 2-(2,3-Difluoro-phenyl)-5-{3-[4-(pyridin-3-yloxymethyl)-phenyl]-isoxazol-5-ylmethyl}-5H-imidazo[4,5-d]pyridazine] | 98.7% |
| Fc1cccc(-c2nc3cnn(Cc4cc(-c5ccc(OCc6cccnc6)cc5)no4)cc-3n2)c1F [Compound 179, 2-(2,3-Difluoro-phenyl)-5-{3-[4-(pyridin-3-ylmethoxy)-phenyl]-isoxazol-5-ylmethyl}-5H-imidazo[4,5-d]pyridazine] | 99.9% |
| Cc1csc(-c2cc(Cn3cc4nc(-c5cccc(F)c5F)nc-4cn3)on2)n1 [Compound 180, 2-(2,3-Difluoro-phenyl)-5-[3-(4-methyl-thiazol-2-yl)-isoxazol-5-ylmethyl]-5H-imidazo[4,5-d]pyridazine] | 83.3% |
| Cc1nc(-c2cc(Cn3cc4nc(-c5cccc(F)c5F)nc-4cn3)on2)c(C)o1 [Compound 185, 2-(2,3-Difluoro-phenyl)-5-[3-(2,5-dimethyl-oxazol-4-yl)-isoxazol-5-ylmethyl]-5H-imidazo[4,5-d]pyridazine] | 47.8% |
| CCCCc1ccc(-c2cc(Cn3cc4nc(-c5cccc(F)c5F)nc-4cn3)on2)c(C(F)(F)F)c1 [Compound 186, 5-[3-(4-Butyl-2-trifluoromethyl-phenyl)-isoxazol-5-ylmethyl]-2-(2,3-difluoro-phenyl)-5H-imidazo[4,5-d]pyridazine] | 100% |
| Cc1ccc(-c2cc(Cn3cc4nc(-c5cccc(F)c5F)nc-4cn3)on2)cc1 [Compound 187, 2-(2,3-Difluoro-phenyl)-5-(3-p-tolyl-isoxazol-5-ylmethyl)-5H-imidazo[4,5-d]pyridazine] | 99.7% |
| CC(C)Cc1ccc(-c2cc(Cn3cc4nc(-c5cccc(F)c5F)nc-4cn3)on2)cc1 [Compound 190, 2-(2,3-Difluoro-phenyl)-5-[3-(4-isobutyl-phenyl)-isoxazol-5-ylmethyl]-5H-imidazo[4,5-d]pyridazine] | 99.9% |
| CCCCCc1ccc(-c2cc(Cn3cc4nc(-c5cccc(F)c5F)nc-4cn3)on2)cc1 [Compound 191, 2-(2,3-Difluoro-phenyl)-5-[3-(4-pentyl-phenyl)-isoxazol-5-ylmethyl]-5H-imidazo[4,5-d]pyridazine] | 99.8% |
| COC(=O)CCCOc1ccc(-c2cc(Cn3cc4nc(-c5cccc(F)c5F)nc-4cn3)on2)cc1 [Compound 192, 4-(4-{5-[2-(2,3-difluoro-phenyl)-imidazo[4,5-d]pyridazin-5-ylmethyl]-isoxazol-3-yl}-phenoxy)-butyric acid methyl ester] | 54.1% |
| OCCCOc1ccc(-c2cc(Cn3cc4nc(-c5cccc(F)c5F)nc-4cn3)on2)cc1 [Compound 193, 3-(4-{5-[2-(2,3-difluoro-phenyl)-imidazo[4,5-d]pyridazin-5-ylmethyl]-isoxazol-3-yl}-phenoxy)-propan-1-ol] | 76.3% |
| CN1CCN(c2ccc(-c3cc(Cn4cc5nc(-c6cccc(F)c6F)nc-5cn4)on3)cc2)CC1 [Compound 194, 2-(2,3-Difluoro-phenyl)-5-{3-[4-(4-methyl-piperazin-1-yl)-phenyl]-isoxazol-5-ylmethyl}-5H-imidazo[4,5-d]pyridazine] | 57.5% |
| COCCOc1ccc(-c2cc(Cn3cc4nc(-c5cccc(F)c5F)nc-4cn3)on2)cc1 [Compound 195] | 98.8% |
| Fc1cccc(-c2nc3cnn(Cc4cc(-c5ccc(OCCN6CCOCC6)cc5)no4)cc-3n2)c1F [Compound 196, 2-(2,3-Difluoro-phenyl)-5-{3-[4-(2-morpholin-4-yl-ethoxy)-phenyl]-isoxazol-5-ylmethyl}-5H-imidazo[4,5-d]pyridazine] | 89% |
| CCCOC(=O)c1cc(-c2cc(Cn3cc4nc(-c5cccc(F)c5F)nc-4cn3)on2)ccc1OCCC [Compound 197, 5-{5-[2-(2,3-Difluoro-phenyl)-imidazo[4,5-d]pyridazin-5-ylmethyl]-isoxazol-3-yl}-2-propoxy-benzoic acid propyl ester] | 54.1% |
| COC(=O)c1cc(OC)ccc1-c1cc(Cn2cc3nc(-c4cccc(F)c4F)nc-3cn2)on1 [Compound 198, 2-{5-[2-(2,3-Difluoro-phenyl)-imidazo[4,5-d]pyridazin-5-ylmethyl]-isoxazol-3-yl}-5-methoxy-benzoic acid methyl ester] | 50.3% |
| O=[N+]([O-])c1ccc(-c2cc(Cn3cc4nc(-c5cccc(F)c5F)nc-4cn3)on2)cc1 [Compound 199, 2-(2,3-Difluoro-phenyl)-5-[3-(4-nitro-phenyl)-isoxazol-5-ylmethyl]-5H-imidazo[4,5-d]pyridazine] | 98.5% |
| Fc1cccc(-c2nc3cnn(Cc4cc(-c5ccc(Br)cc5)no4)cc-3n2)c1F [Compound 200, 5-[3-(4-bromo-phenyl)-isoxazol-5-ylmethyl]-2-(2,3-difluoro-phenyl)-5H-imidazo[4,5-d]pyridazine] | 99.4% |
| CCCCc1ccc(-c2cc(Cn3cc4nc(-c5cccc(F)c5F)nc-4cn3)on2)cc1 [Compound 201, 5-[3-(4-Butyl-phenyl)-isoxazol-5-ylmethyl]-2-(2,3-difluoro-phenyl)-5H-imidazo[4,5-d]pyridazine] | 100% |
| Fc1cccc(-c2nc3cnn(Cc4cc(-c5ccc(C(F)(F)F)cc5)no4)cc-3n2)c1F [Compound 202, 2-(2,3-Difluoro-phenyl)-5-[3-(4-trifluoromethyl-phenyl)-isoxazol-5-ylmethyl]-5H-imidazo[4,5-d]pyridazine] | 99.2% |
| Fc1cc(C(F)(F)F)ccc1-c1cc(Cn2cc3nc(-c4cccc(F)c4F)nc-3cn2)on1 [Compound 203, 2-(2,3-Difluoro-phenyl)-5-[3-(2-fluoro-4-trifluoromethyl-phenyl)-isoxazol-5-ylmethyl]-5H-imidazo[4,5-d]pyridazine] | 99.6% |
| Fc1cccc(-c2nc3cnn(Cc4cc(-c5ccc(C(F)(F)F)nc5)no4)cc-3n2)c1F [Compound 205, 2-(2,3-Difluoro-phenyl)-5-[3-(6-trifluoromethyl-pyridin-3-yl)-isoxazol-5-ylmethyl]-5H-imidazo[4,5-d]pyridazine] | 98.7% |
| Fc1cc(-c2cc(Cn3cc4nc(-c5cccc(F)c5F)nc-4cn3)on2)ccc1C(F)(F)F [Compound 206, 2-(2,3-Difluoro-phenyl)-5-[3-(3-fluoro-4-trifluoromethyl-phenyl)-isoxazol-5-ylmethyl]-5H-imidazo[4,5-d]pyridazine] | 98.1% |
| FCCCOc1ccc(-c2cc(Cn3cc4nc(-c5cccc(F)c5F)nc-4cn3)on2)cc1 [Compound 207, 2-(2,3-Difluoro-phenyl)-5-{3-[4-(3-fluoro-propoxy)-phenyl]-isoxazol-5-ylmethyl}-5H-imidazo[4,5-d]pyridazine] | 99.5% |
| CN(C)c1ccc(-c2cc(Cn3cc4nc(-c5cccc(F)c5F)nc-4cn3)on2)cc1 [Compound 208, (4-{5-[2-(2,3-Difluoro-phenyl)-imidazo[4,5-d]pyridazin-5-ylmethyl]-isoxazol-3-yl}-phenyl)-dimethyl-amine] | 69.7% |
| COC(=O)c1ccc(-c2cc(Cn3cc4nc(-c5cccc(F)c5F)nc-4cn3)on2)cc1 [Compound 209, 4-{5-[2-(2,3-difluoro-phenyl)-imidazo[4,5-d]pyridazin-5-ylmethyl]-isoxazol-3-yl}-benzoic acid methyl ester] | 93.6% |
| N#Cc1ccc(-c2cc(Cn3cc4nc(-c5cccc(F)c5F)nc-4cn3)on2)cc1 [Compound 213, 4-{5-[2-(2,3-Difluoro-phenyl)-imidazo[4,5-d]pyridazin-5-ylmethyl]-isoxazol-3-yl}-benzonitrile] | 98.1% |
| Fc1cccc(-c2nc3cnn(Cc4cc(-c5ccc(OC(F)(F)F)cc5)no4)cc-3n2)c1F [Compound 214, 2-(2,3-Difluoro-phenyl)-5-[3-(4-trifluoromethoxy-phenyl)-isoxazol-5-ylmethyl]-5H-imidazo[4,5-d]pyridazine] | 98.5% |
| CN(C)CCCOc1ccc(-c2cc(Cn3cc4nc(-c5cccc(F)c5F)nc-4cn3)on2)cc1 [Compound 216, [3-(4-{5-[2-(2,3-Difluoro-phenyl)-imidazo[4,5-d]pyridazin-5-ylmethyl]-isoxazol-3-yl}-phenoxy)-propyl]-dimethyl-amine] | 79.1% |
| Fc1cccc(-c2nc3cnn(Cc4cc(-c5ccc(CN6CCCC6)cc5)no4)cc-3n2)c1F [Compound 219, 2-(2,3-Difluoro-phenyl)-5-[3-(4-pyrrolidin-1-ylmethyl-phenyl)-isoxazol-5-ylmethyl]-5H-imidazo[4,5-d]pyridazine] | 35% |
